Tested on: endothelial cells, e.g. cells of the endothelium of the human umbilical cord vein
Assay: Protection of cultured endothelial cells against cold-induced damage (lactate dehydrogenase release)
Format: cell-based
Conditions: Homo sapiens, Endothelial cell; cells pre-incubated with test substance, medium replaced, then incubated e.g. 24 hours at 0° C; LDH in supernatant; read-out: EC50 (concentration at which 50% of the release of lactate dehydrogenase is inhibited)
Experimental: The active substances are synthesised as described below. The action of the substances on cold-induced damage to cells is quantified in a model system. For this purpose, endothelial cells, e.g. cells of the endothelium of the human umbilical cord vein, are cultured. The cells are incubated with various concentrations of the test substances for variable periods of time and then the medium is replaced by fresh medium without any test substance. Next, the cells are incubated e.g. for 24 hours at 0° C. At the end of the incubation period, the lactate dehydrogenase released is determined in the supernatant of the culture vessels by known methods, this concentration being a measure of cell damage. The effectiveness of the individual compounds is determined by the concentration at which 50% of the release of lactate dehydrogenase is inhibited (EC50).

Row | SMILES | EC50 [µM]
1 | CNCC(O)c1ccc(O)c(O)c1 (stereo not shown) [Adrenalin, reference compound] | 600
2 | CC(CCc1ccc(O)cc1)NCCc1ccc(O)c(O)c1 (stereo not shown) [Dobutamine, reference compound] | 5
3 | NCCc1ccc(O)c(O)c1 [Dopamine, reference compound] | 75
4 | O=C(CCc1ccccc1)NCCc1ccc(O)c(O)c1 [N-(3-Phenylpropanoyl) dopamine] | 9 ± 1
5 | Cc1ccc(S(=O)(=O)NCCc2ccc(O)c(O)c2)cc1 [N-(4-Methylphenylsulfonyl) dopamine] | 12 ± 1
6 | CCCCCCCCCC(=O)NCCc1ccc(O)c(O)c1 [N-Decanoyl dopamine] | 0.9 ± 0.2
7 | CCCCCCCCCCCC(=O)NCCc1ccc(O)c(O)c1 [N-Dodecanoyl dopamine] | 1.2 ± 0.2
8 | CCCCCCCC(=O)NCCc1ccc(O)c(O)c1 [N-Octanoyl dopamine] | 2.1 ± 0.2
9 | CCCCCCCCCCCCCC(=O)NCCc1ccc(O)c(O)c1 [N-Tetradecanoyl dopamine] | 1.3 ± 0.2
10 | NC[C@H](O)c1ccc(O)c(O)c1 [Noradrenalin, reference compound] | 700

Same assay, conditions: cells pre-incubated with test substance, medium replaced, then incubated e.g. 24 hours at 0° C; LDH in supernatant; read-out: EC50 (concentration at which 50% of the release of lactate dehydrogenase is inhibited)

Row | SMILES | EC50 [µM]
11 | CCCCCCCCNC(=O)c1cccc(O)c1O [2,3-Dihydroxybenzoyl amidooctane] | 1.2 ± 0.1
12 | CCCCCCCCNC(=O)c1cc(O)ccc1O [2,5-Dihydroxybenzoyl amidooctane] | 6 ± 1
13 | CCCCCCCCNC(=O)c1ccc(O)c(O)c1 [3,4-Dihydroxybenzoyl amidooctane] | 2.4 ± 0.2

Source: US20100129436A1, “SUBTANCES FOR THE PROTECTION OF CELLS AND/OR TISSUES” (priority 2007, published 2010)
